{"source": "PubChem BioAssay AID1963860", "about": "(Molecular Pharmacology Branch, DTP, NCI, 2024);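 also: spheroids exposed to agents for 7 days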", "tested_on": "CN0375-F725-PDC KRAS spheroid viability", "experiment": "Anticancer human tumor CN0375-F725-PDC patient-derived colon carcinoma cell line growth inhibition [KRAS2]", "settings": "spheroids with HUVEC and MSC; for IC50: curve of first compound; for viability, T/C: stronger effect = lower value", "in_short": "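Combination screen of spheroid viability in tumor-cell co-cultures with endothelial (HUVEC) and mesenchymal stem cell stroma. Each agent was tested in half-log dilutions, topping at clinical Cmax or at 10 microM without a known Cmax.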"}
{"smiles": "COC(=O)c1ccc2c(C(=Nc3ccc(N(C)C(=O)CN4CCN(C)CC4)cc3)c3ccccc3)c(O)[nH]c2c1", "note": "+ C=CC(=O)N1CCN(c2nc(OCC3CCCN3C)nc3c2CCN(c2cccc4cccc(C)c24)C3)CC1CC#N", "values": [{"measurement": "IC50", "setting": "second compound 0.0316 µM", "value": 2970, "unit": "nM"}, {"measurement": "IC50", "setting": "second compound 0.1 µM", "value": 2800, "unit": "nM"}, {"measurement": "IC50", "setting": "second compound 0.316 µM", "value": 2340, "unit": "nM"}, {"measurement": "IC50", "setting": "second compound 1 µM", "value": 1480, "unit": "nM"}, {"measurement": "IC50", "setting": "second compound 3.16 µM", "value": "< 31.6", "unit": "nM"}, {"measurement": "viability, T/C", "setting": "second compound 0.0316 µM, first compound 0.0316 µM", "value": 102, "unit": "%"}, {"measurement": "viability, T/C", "setting": "second compound 0.0316 µM, first compound 0.1 µM", "value": 95.3, "unit": "%"}, {"measurement": "viability, T/C", "setting": "second compound 0.0316 µM, first compound 0.316 µM", "value": 91.1, "unit": "%"}, {"measurement": "viability, T/C", "setting": "second compound 0.0316 µM, first compound 1 µM", "value": 91.5, "unit": "%"}, {"measurement": "viability, T/C", "setting": "second compound 0.0316 µM, first compound 3.16 µM", "value": 47.6, "unit": "%"}, {"measurement": "viability, T/C", "setting": "second compound 0.0316 µM, first compound 10 µM", "value": 0.22, "unit": "%"}, {"measurement": "viability, T/C", "setting": "second compound 0.1 µM, first compound 0.0316 µM", "value": 104, "unit": "%"}, {"measurement": "viability, T/C", "setting": "second compound 0.1 µM, first compound 0.1 µM", "value": 98.8, "unit": "%"}, {"measurement": "viability, T/C", "setting": "second compound 0.1 µM, first compound 0.316 µM", "value": 92.6, "unit": "%"}, {"measurement": "viability, T/C", "setting": "second compound 0.1 µM, first compound 1 µM", "value": 89.4, "unit": "%"}, {"measurement": "viability, T/C", "setting": "second compound 0.1 µM, first compound 3.16 µM", "value": 45.1, "unit": "%"}, {"measurement": "viability, T/C", "setting": "second compound 0.1 µM, first compound 10 µM", "value": 0.36, "unit": "%"}, {"measurement": "viability, T/C", "setting": "second compound 0.316 µM, first compound 0.0316 µM", "value": 99.5, "unit": "%"}, {"measurement": "viability, T/C", "setting": "second compound 0.316 µM, first compound 0.1 µM", "value": 100, "unit": "%"}, {"measurement": "viability, T/C", "setting": "second compound 0.316 µM, first compound 0.316 µM", "value": 93.2, "unit": "%"}, {"measurement": "viability, T/C", "setting": "second compound 0.316 µM, first compound 1 µM", "value": 90.8, "unit": "%"}, {"measurement": "viability, T/C", "setting": "second compound 0.316 µM, first compound 3.16 µM", "value": 35.5, "unit": "%"}, {"measurement": "viability, T/C", "setting": "second compound 0.316 µM, first compound 10 µM", "value": 0.16, "unit": "%"}, {"measurement": "viability, T/C", "setting": "second compound 1 µM, first compound 0.0316 µM", "value": 93.8, "unit": "%"}, {"measurement": "viability, T/C", "setting": "second compound 1 µM, first compound 0.1 µM", "value": 91.3, "unit": "%"}, {"measurement": "viability, T/C", "setting": "second compound 1 µM, first compound 0.316 µM", "value": 85.2, "unit": "%"}, {"measurement": "viability, T/C", "setting": "second compound 1 µM, first compound 1 µM", "value": 68.7, "unit": "%"}, {"measurement": "viability, T/C", "setting": "second compound 1 µM, first compound 3.16 µM", "value": 15.4, "unit": "%"}, {"measurement": "viability, T/C", "setting": "second compound 1 µM, first compound 10 µM", "value": 0.41, "unit": "%"}, {"measurement": "viability, T/C", "setting": "second compound 3.16 µM, first compound 0.0316 µM", "value": 26.5, "unit": "%"}, {"measurement": "viability, T/C", "setting": "second compound 3.16 µM, first compound 0.1 µM", "value": 20.2, "unit": "%"}, {"measurement": "viability, T/C", "setting": "second compound 3.16 µM, first compound 0.316 µM", "value": 21.8, "unit": "%"}, {"measurement": "viability, T/C", "setting": "second compound 3.16 µM, first compound 1 µM", "value": 5.53, "unit": "%"}, {"measurement": "viability, T/C", "setting": "second compound 3.16 µM, first compound 3.16 µM", "value": 1.94, "unit": "%"}, {"measurement": "viability, T/C", "setting": "second compound 3.16 µM, first compound 10 µM", "value": 0.67, "unit": "%"}]}
